These results are taken from ChEMBL document CHEMBL1201862, “PubChem BioAssay data set” (2004).

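Where inhibition never reached the appropriate level, the endpoint shown equals the highest concentration tested. Otherwise, values were interpolated linearly from a five-concentration, 48-hour dose response in 96-well plates. GI50: concentration for 50% inhibition of growth.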 Calls of active or inactive are those of the source. Cut-off read from the data, not from the text of the source: active = GI50 up to about 1.1 µM and inactive = higher.

Among the test systems are 786-0; HCC 2998; HCT-116; HOP-92; HT-29; IGROV-1; K562; KM12; LOX IMVI; MCF7; MDA-MB-231; NCI-H522; OVCAR-8; RPMI-8226; SF-295; SF-539; SN12C; SNB-75; UACC-62; UO-31.
Experiment in all cases: NCI tumour cell line growth inhibition, 48 h

In the case of `O=C(O)c1nc(-c2ccccc2)[nH]c1C(=O)O`, the GI50 in the assay with 786-0 was 10.6 µM (inactive); in the assay with HCC 2998 it was 5.94 µM (inactive); in the assay on HCT-116, 4.43 µM (inactive); in the assay on HOP-92, 16.3 µM (inactive); in the assay on HT-29, 7.03 µM (inactive); in the assay on IGROV-1, 11.7 µM (inactive). Further, the GI50 was 3.72 µM (inactive) with K562; 4.65 µM (inactive) in the assay on KM12; 3.01 µM (inactive) in the assay on LOX IMVI; 2.32 µM (inactive) in the assay on MCF7; 5.62 µM (inactive) in the assay with MDA-MB-231; 13.1 µM (inactive) with NCI-H522. Further, the GI50 is 14.1 µM (inactive) with OVCAR-8; 1.84 µM (inactive) in the assay on RPMI-8226; 16.7 µM (inactive) with SF-295; 7.8 µM (inactive) in the assay with SF-539; 13.6 µM (inactive) in the assay with SN12C; 19.4 µM (inactive) in the assay with SNB-75. In addition, the figures for the GI50 with UACC-62 and with UO-31 were 17.2 µM (inactive) and 12.1 µM (inactive), respectively.
As for `CC(=O)OC(=C(C#N)C#N)c1nccnc1C(=O)O`, the GI50 with 786-0, with HCC 2998, with HCT-116, in the assay with HOP-92, in the assay on HT-29 and in the assay with IGROV-1 was > 100 µM (inactive) in each case. In addition, the GI50 in the assay with K562, in the assay with KM12, with LOX IMVI, with MCF7, in the assay with MDA-MB-231 and in the assay on NCI-H522 was > 100 µM (inactive) each time. Moreover, the GI50 with OVCAR-8 was > 100 µM (inactive); in the assay with RPMI-8226, > 100 µM (inactive); in the assay on SF-295, > 100 µM (inactive); in the assay on SF-539, > 100 µM (inactive); in the assay with SN12C it was > 100 µM (inactive); in the assay on SNB-75, 95.7 µM (inactive). The GI50 with UACC-62 and in the assay on UO-31 was > 100 µM (inactive) in each case.
`O=[N+]([O-])c1ccc(CSc2nn(Cc3ccc([N+](=O)[O-])cc3)cc3ncnc2-3)cc1`: the GI50 in the assay with 786-0 was 47.5 µM (inactive); in the assay with HCC 2998, 35.6 µM (inactive); in the assay on HCT-116, 37.1 µM (inactive); in the assay on HOP-92, 0.361 µM (active); in the assay on HT-29, 29.6 µM (inactive); with IGROV-1 it was 20.4 µM (inactive). Also, the GI50 with K562 was 31.8 µM (inactive); in the assay on KM12, 30.4 µM (inactive); in the assay on LOX IMVI it was 33.9 µM (inactive); with MCF7, 27.9 µM (inactive); with MDA-MB-231 it was 34.4 µM (inactive); in the assay on NCI-H522, 22.3 µM (inactive). For the same compound, the GI50 in the assay on OVCAR-8 was 33.2 µM (inactive); in the assay on RPMI-8226, 14.8 µM (inactive); in the assay with SF-295, 45.3 µM (inactive); in the assay on SF-539, 32 µM (inactive); with SN12C, 57.4 µM (inactive); in the assay on SNB-75 it was 34.1 µM (inactive). For the same compound, the GI50 in the assay with UACC-62 was 17.5 µM (inactive); with UO-31, 12.1 µM (inactive).
`CCn1cnc2c(NC(C)=O)ncnc21`: the GI50 with 786-0, in the assay with HCC 2998, with HCT-116, with HOP-92, in the assay on HT-29 and with IGROV-1 was > 100 µM (inactive) each time. Also, the GI50 in the assay with K562, with KM12, with LOX IMVI, with MCF7, with MDA-MB-231 and with NCI-H522 was > 100 µM (inactive) each time. The GI50 with OVCAR-8 is > 100 µM (inactive); in the assay on RPMI-8226, > 100 µM (inactive); with SF-295 it was > 100 µM (inactive); in the assay with SF-539, > 100 µM (inactive); in the assay with SN12C, > 100 µM (inactive); in the assay on SNB-75, 1.33 µM (inactive). The GI50 with UACC-62 and with UO-31 was > 100 µM (inactive) each time.
As for `CC(C)(C)c1cc(-c2cc(C(C)(C)C)n(-c3ccccc3)n2)nn1-c1ccccc1`, the GI50 in the assay with 786-0 is > 100 µM (inactive); in the assay with HCC 2998, 31.3 µM (inactive); with HCT-116 it was > 100 µM (inactive); in the assay with HOP-92, > 100 µM (inactive); with HT-29, 68.9 µM (inactive); in the assay on IGROV-1, > 100 µM (inactive). Besides, the GI50 in the assay on K562 is 3.27 µM (inactive); with KM12, 84.5 µM (inactive); with LOX IMVI it was 6.43 µM (inactive); with MCF7, > 100 µM (inactive); in the assay on MDA-MB-231, > 100 µM (inactive); with NCI-H522 it was > 100 µM (inactive). Further, the GI50 with OVCAR-8, in the assay with RPMI-8226, in the assay with SF-295, with SF-539, in the assay with SN12C and with SNB-75 was > 100 µM (inactive) throughout. The GI50 in the assay on UACC-62 was 11.6 µM (inactive); with UO-31, 30.4 µM (inactive).
With `CC(C)(C)c1cc(OCc2nnc(S)n2N)c(Cl)cc1OCc1nnc(S)n1N`, the GI50 in the assay with 786-0 is 59.6 µM (inactive); in the assay with HCC 2998 it was 31.1 µM (inactive); in the assay with HCT-116 it was 33 µM (inactive); in the assay with HOP-92, 28.1 µM (inactive); in the assay with HT-29, 43.9 µM (inactive); with IGROV-1 it was 44.9 µM (inactive). Further, the GI50 in the assay with K562 was 37.7 µM (inactive); in the assay on KM12, 40.9 µM (inactive); in the assay with LOX IMVI it was 34.8 µM (inactive); with MCF7, 38.5 µM (inactive); in the assay on MDA-MB-231 it was 27.5 µM (inactive); with NCI-H522, 35.2 µM (inactive). The GI50 with OVCAR-8 was 50.5 µM (inactive); in the assay on RPMI-8226 it was 29.5 µM (inactive); in the assay with SF-295, 43.1 µM (inactive); with SF-539 it was 48.3 µM (inactive); in the assay on SN12C it was 28.4 µM (inactive); in the assay on SNB-75, 44.1 µM (inactive). Moreover, the GI50 was 20.7 µM (inactive) with UACC-62 and 63.2 µM (inactive) in the assay with UO-31.
On to `Cn1c2ccccc2c2c3c(c4c5ccccc5n(C)c4c21)C(=O)N(c1ccccc1)C3=O`, for which the GI50 was > 100 µM (inactive) in the assay with 786-0; > 100 µM (inactive) with HCC 2998; > 100 µM (inactive) in the assay with HCT-116; > 100 µM (inactive) with HOP-92; > 100 µM (inactive) in the assay with HT-29; 98.6 µM (inactive) in the assay with IGROV-1. The GI50 was > 100 µM (inactive) in the assay with K562; > 100 µM (inactive) in the assay with KM12; > 100 µM (inactive) with LOX IMVI; > 100 µM (inactive) in the assay with MCF7; > 100 µM (inactive) with MDA-MB-231; 44.4 µM (inactive) in the assay with NCI-H522. The GI50 with OVCAR-8, in the assay on RPMI-8226, in the assay on SF-295, with SF-539, in the assay with SN12C and with SNB-75 was > 100 µM (inactive) each time. In addition, the GI50 in the assay with UACC-62 and with UO-31 was > 100 µM (inactive) in each case.
`O=C1OC2c3ccccc3C(=O)C2(c2ccccc2)N1c1ccccc1` (stereo not given): the GI50 in the assay with 786-0, with HCC 2998, with HCT-116, with HOP-92, in the assay on HT-29 and with IGROV-1 was > 200 µM (inactive) throughout. Besides, the GI50 in the assay with K562 is 139 µM (inactive); in the assay with KM12 it was > 200 µM (inactive); in the assay on LOX IMVI, > 200 µM (inactive); in the assay on MCF7, > 200 µM (inactive); in the assay with MDA-MB-231, > 200 µM (inactive); with NCI-H522, > 200 µM (inactive). The GI50 in the assay on OVCAR-8 is > 200 µM (inactive); with RPMI-8226, 132 µM (inactive); in the assay with SF-295 it was > 200 µM (inactive); with SF-539, > 200 µM (inactive); in the assay on SN12C it was > 200 µM (inactive); in the assay with SNB-75, 45.4 µM (inactive). The results for the GI50 with UACC-62 and in the assay on UO-31 were > 200 µM (inactive) and 72.6 µM (inactive), respectively.
Take `COC1C(OC(=O)/C=C/C=C/C=C/C=C/C(=O)O)CCC2(CO2)C1C1(C)OC1CC=C(C)C` (stereo not given): the GI50 is 20.5 µM (inactive) in the assay on 786-0; 26 µM (inactive) with HCC 2998; 12.6 µM (inactive) in the assay on HCT-116; 27.4 µM (inactive) in the assay with HOP-92; 21.1 µM (inactive) in the assay on HT-29; 46.3 µM (inactive) with IGROV-1. The GI50 in the assay with K562 was 21.1 µM (inactive); with KM12, 12.4 µM (inactive); with LOX IMVI, 17.4 µM (inactive); in the assay on MCF7, 25.1 µM (inactive); in the assay with MDA-MB-231, 21.3 µM (inactive); in the assay with NCI-H522, 23.2 µM (inactive). Further, the GI50 in the assay on OVCAR-8 was 29.3 µM (inactive); in the assay on RPMI-8226, 20.1 µM (inactive); with SF-295, 17.3 µM (inactive); in the assay on SF-539, 42.3 µM (inactive); with SN12C, 28.1 µM (inactive); in the assay on SNB-75, 25.3 µM (inactive). The values for the GI50 in the assay on UACC-62 and in the assay with UO-31 were 16.1 µM (inactive) and 24.5 µM (inactive), respectively.
In the case of `CC(=O)OC1(C)CC(C)C(=O)C(C(O)CC2CC(=O)NC(=O)C2)C1` (stereo not given), the GI50 in the assay with 786-0 was 0.0204 µM (active); in the assay on HCC 2998, 0.01 µM (active); in the assay with HCT-116, 0.00743 µM (active); in the assay with HOP-92 it was 0.00172 µM (active); in the assay with HT-29 it was 0.00798 µM (active); with IGROV-1, 0.031 µM (active). In addition, the GI50 with K562 was 0.0178 µM (active); with KM12, 0.00746 µM (active); in the assay on LOX IMVI, 0.013 µM (active); with MCF7 it was 0.0176 µM (active); in the assay on MDA-MB-231, 0.0137 µM (active); in the assay with NCI-H522, 0.00357 µM (active). For the same compound, the GI50 in the assay on OVCAR-8 is 0.0122 µM (active); in the assay with RPMI-8226 it was 0.0118 µM (active); with SF-295 it was 0.0127 µM (active); in the assay on SF-539 it was 0.0145 µM (active); in the assay on SN12C, 0.00822 µM (active); with SNB-75, 0.504 µM (active). Moreover, the GI50 was 0.082 µM (active) in the assay on UACC-62 and 0.0219 µM (active) in the assay with UO-31.
